Target: T1, LPA1 (Homo sapiens, UniProt Q92633)
T1 construct: ProLink (β-galactosidase enzyme-donor fragment); host or cells: CHO-K1 (PathHunter EDG2 β-Arrestin cell line)
Assay: LPA1 calcium flux assay (LPA1 functional antagonist assay)
Assay type: cell-based
Conditions: PathHunter CHO-K1 EDG2 β-Arrestin cells, calcium indicator dye, stimulated with EC80 concentration of LPA, FLIPR
Procedure: The effectiveness of compounds of the present invention as LPA1 inhibitors can be determined in an LPA1 functional antagonist assay as follows.
PathHunter® CHO-K1 EDG2 β-Arrestin Cell Line (Eurofins DiscoverX Corporation, Cat #93-0644C2) were plated overnight (11,500 cells/well) in poly-D-lysine coated 384-well microplates (Corning, Cat #356697) in AssayComplete™ Cell Plating 35 Reagent (Eurofins DiscoverX Corporation, Cat #93-0563R35). Following overnight culture, cells were loaded with calcium indicator dye from the HitHunter Calcium No WashPLUS Assay kit (Eurofins DiscoverX Corporation, Cat #93-0091) for 45 minutes at 37° C. Test compounds solubilized in DMSO (Sigma, Cat #276855) on 384-well polypropylene microplates (Greiner bio-one, Cat #781280) were then diluted to intermediate concentration with assay buffer [1×HBSS calcium/magnesium (Corning, Cat #21-023-CM) and 20 mM HEPES (Corning, Cat #25-060-Cl)] before addition to cells by Agilent Velocity 11 with a final concentration of 0.4% DMSO. After compound addition, assay plates were equilibrated to room temperature for 30 minutes. Cells were then stimulated by addition of EC80 concentration of LPA (Cat #, 10010093) in assay buffer containing [1×HBSS calcium/magnesium (Corning, Cat #21-023-CM), 20 mM HEPES (Corning, Cat #25-060-Cl), and 0.1% BSA (Sigma, Cat #A8806)] using Molecular Devices FLIPR Tetra PLUS®. IC50 values were determined by Chemical and Biological Information System from ChemInnovation Software, Inc.
The compounds of this invention were tested for their activity to inhibit LPA1 as determined in an LPA1 functional antagonist assay as described herein.

T1 sequence (Q92633 whole entry, the tested form may be a part): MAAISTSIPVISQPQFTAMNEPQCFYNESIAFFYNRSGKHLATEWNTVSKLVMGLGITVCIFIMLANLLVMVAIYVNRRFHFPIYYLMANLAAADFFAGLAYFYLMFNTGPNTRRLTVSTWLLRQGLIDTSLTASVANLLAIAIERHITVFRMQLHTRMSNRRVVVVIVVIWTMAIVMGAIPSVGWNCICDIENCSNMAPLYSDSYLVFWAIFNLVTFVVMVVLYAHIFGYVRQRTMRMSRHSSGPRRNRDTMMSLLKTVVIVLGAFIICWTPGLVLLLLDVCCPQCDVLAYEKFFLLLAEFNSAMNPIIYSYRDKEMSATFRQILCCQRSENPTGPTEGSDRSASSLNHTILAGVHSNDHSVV

Row | IC50 [nM] | Compound
1 | < 100 | CCc1nc(-c2nnn(C)c2COc2nccc(C3CCC3)n2)ccc1N1CC[C@@H]([C@H](C)C(=O)O)C1 [Example 10]
2 | < 100 | CCc1nc(-c2nnn(C)c2COc2nccc(C3CCC3)n2)ccc1N1CC[C@H]([C@H](C)C(=O)O)C1 [Example 11]
3 | 500 to 5000 | CCCc1ccc(=O)n(Cc2c(-c3ccc(N4CC[C@@H]([C@@H](C)C(=O)O)C4)c(CC)n3)nnn2C)c1 [Example 12, (R)-2-((S)-1-(2-ethyl-6-(1-methyl-5-((2-oxo-5-propylpyridin-1(2H)-yl)methyl)-1H-1,2,3-triazol-4-yl)pyridin-3-yl)pyrrolidin-3-yl)propanoic acid]
4 | 100 to 500 | CCCc1ccc(=O)n(Cc2c(-c3ccc(N4CC[C@@H]([C@H](C)C(=O)O)C4)c(CC)n3)nnn2C)c1 [Example 13, (S)-2-((S)-1-(2-ethyl-6-(1-methyl-5-((2-oxo-5-propylpyridin-1(2H)-yl)methyl)-1H-1,2,3-triazol-4-yl)pyridin-3-yl)pyrrolidin-3-yl)propanoic acid]
5 | < 100 | CCCc1ccc(=O)n(Cc2c(-c3ccc(N4CC[C@@H](C(C)(C)C(=O)O)C4)c(CC)n3)nnn2C)c1 [Example 14]
6 | < 100 | CCCc1ccc(=O)n(Cc2c(-c3ccc(N4CC[C@@H](C(C)(C)C(=O)O)C4)c(C)n3)nnn2C)c1 [Example 15, (S)-2-methyl-2-(1-(2-methyl-6-(1-methyl-5-((2-oxo-5-propylpyridin-1(2H)-yl)methyl)-1H-1,2,3-triazol-4-yl)pyridin-3-yl)pyrrolidin-3-yl)propanoic acid]
7 | 500 to 5000 | CCCc1ccc(=O)n(Cc2c(-c3ccc(N4CC[C@H](C(C)(C)C(=O)O)C4)c(CC)n3)nnn2C)c1 [Example 16, (R)-2-(1-(2-ethyl-6-(1-methyl-5-((2-oxo-5-propylpyridin-1(2H)-yl)methyl)-1H-1,2,3-triazol-4-yl)pyridin-3-yl)pyrrolidin-3-yl)-2-methylpropanoic acid]
8 | 100 to 500 | Cc1nc(-c2nnn(C)c2COc2nccc(C3CCC3)n2)ccc1C1CC(CC(=O)O)CCO1 (centres unmarked) [Example 26, 2-(2-(6-(5-(((4-cyclobutylpyrimidin-2-yl)oxy)methyl)-1-methyl-11H-1,2,3-triazol-4-yl)-2-methylpyridin-3-yl)tetrahydro-2H-pyran-4-yl)acetic acid]
9 | 500 to 5000 | CCCc1ccc(=O)n(Cc2c(-c3ccc(C4CC(CC(=O)O)CCO4)c(C)n3)nnn2C)c1 (centres unmarked) [Example 27, 2-[2-(2-methyl-6-{1-methyl-5-[(2-oxo-5-propyl-1,2-dihydropyridin-1-yl)methyl]-1H-1,2,3-triazol-4-yl}pyridin-3-yl)oxan-4-yl]acetic acid]
10 | 100 to 500 | Cc1nc(-c2nnn(C)c2COc2nccc(C3CCC3)n2)ccc1C1COCC(CC(=O)O)C1 (centres unmarked) [Example 28, 2-{5-[6-(5-{[(4-cyclobutylpyrimidin-2-yl)oxy]methyl}-1-methyl-1H-1,2,3-triazol-4-yl)-2-methylpyridin-3-yl]oxan-3-yl}acetic acid]
11 | 500 to 5000 | CCCc1ccc(=O)n(Cc2c(-c3ccc(C4COCC(CC(=O)O)C4)c(C)n3)nnn2C)c1 (centres unmarked) [Example 29]
12 | 500 to 5000 | CCCN(C)C(=O)OCc1c(-c2ccc(C3CCOC(CC(=O)O)C3)c(CC)n2)nnn1C (centres unmarked) [Example 30, 2-(4-{2-ethyl-6-[1-methyl-5-({[methyl(propyl)carbamoyl]oxy}methyl)-1H-1,2,3-triazol-4-yl]pyridin-3-yl}oxan-2-yl)acetic acid]
13 | 500 to 5000 | CCCc1ccc(=O)n(Cc2c(-c3ccc(C4CCOC(CC(=O)O)C4)c(CC)n3)nnn2C)c1 (centres unmarked) [Example 31, 2-(4-(2-ethyl-6-(1-methyl-5-((2-oxo-5-propylpyridin-1(2H)-yl)methyl)-1H-1,2,3-triazol-4-yl)pyridin-3-yl)tetrahydro-2H-pyran-2-yl)acetic acid]
14 | < 100 | CCc1nc(-c2nnn(C)c2COc2nccc(C3CCC3)n2)ccc1C1CCOC(CC(=O)O)C1 (centres unmarked) [Example 32, 2-(4-(6-(5-(((4-cyclobutylpyrimidin-2-yl)oxy)methyl)-1-methyl-1H-1,2,3-triazol-4-yl)-2-ethylpyridin-3-yl)tetrahydro-2H-pyran-2-yl)acetic acid]
15 | 100 to 500 | CCc1nc(-c2nnn(C)c2COc2cc(-n3cccn3)ncn2)ccc1C1CCOC(CC(=O)O)C1 (centres unmarked) [Example 33, 2-(4-(6-(5-(((6-(1H-pyrazol-1-yl)pyrimidin-4-yl)oxy)methyl)-1-methyl-1H-1,2,3-triazol-4-yl)-2-ethylpyridin-3-yl)tetrahydro-2H-pyran-2-yl)acetic acid]
16 | 100 to 500 | CCCc1ccc(=O)n(Cc2c(-c3ccc(C4CCCC(CC(=O)O)C4)c(C)n3)nnn2C)c1 (centres unmarked) [Example 38, 2-[3-(2-methyl-6-{1-methyl-5-[(2-oxo-5-propyl-1,2-dihydropyridin-1-yl)methyl]-1H-1,2,3-triazol-4-yl}pyridin-3-yl)cyclohexyl]acetic acid]
17 | < 100 | Cc1nc(-c2nnn(C)c2COc2nccc(C3CCC3)n2)ccc1C1CCCC(CC(=O)O)C1 (centres unmarked) [Example 39, 2-{3-[6-(5-{[(4-cyclobutylpyrimidin-2-yl)oxy]methyl}-1-methyl-1H-1,2,3-triazol-4-yl)-2-methylpyridin-3-yl]cyclohexyl}acetic acid]
18 | 100 to 500 | Cc1nc(-c2nnn(C)c2CN2CC(CC3CC3)N(C)C2=O)ccc1O[C@H]1CCC[C@H](C(=O)O)C1 (stereo partly drawn) [Example 42, (1S,3S)-3-((6-(5-((4-(cyclopropylmethyl)-3-methyl-2-oxoimidazolidin-1-yl)methyl)-1-methyl-1H-1,2,3-triazol-4-yl)-2-methylpyridin-3-yl)oxy)cyclohexane-1-carboxylic acid]
19 | < 100 | CCCc1ccc(=O)n(Cc2c(-c3ccc(O[C@H]4CCC[C@H](C(=O)O)C4)c(CC)n3)nnn2C)c1 [Example 43, (1S,3S)-3-((2-ethyl-6-(1-methyl-5-((2-oxo-5-propylpyridin-1(2H)-yl)methyl)-1H-1,2,3-triazol-4-yl)pyridin-3-yl)oxy)cyclohexanecarboxylic acid]
20 | < 100 | CCc1nc(-c2nnn(C)c2Cn2cc(CC3CC3)ccc2=O)ccc1O[C@H]1CCC[C@H](C(=O)O)C1 [Example 44, (1S,3S)-3-((6-(5-((5-(cyclopropylmethyl)-2-oxopyridin-1(2H)-yl)methyl)-1-methyl-1H-1,2,3-triazol-4-yl)-2-ethylpyridin-3-yl)oxy)cyclohexanecarboxylic acid]
